What was measured:
[1] = Inhibition of hedgehog pathway in mouse Shh Light II cells transfected with Renilla luciferase and firefly luciferase incubated for 48 hrs by dual luciferase reporter gene assay; assay type: cell-based
[2] = molecular target: Protein smoothened (Homo sapiens) (UniProt Q99835); assay: Binding affinity to recombinant human Flag-6 x His-tagged Smo expressed in human HEK293T cells assessed as reduction in BODIPY-Cyclopamine binding by measuring fluorescence intensity at 30 uM incubated for 2 to 4 hrs by fluorescence microscopic competitive binding analysis relative to control; assay type: cell-based; set-up: scale not given: the % may be the effect or the level left; conditions: time 2-4 hrs
Sequence of Protein smoothened (Homo sapiens) (Q99835 whole entry): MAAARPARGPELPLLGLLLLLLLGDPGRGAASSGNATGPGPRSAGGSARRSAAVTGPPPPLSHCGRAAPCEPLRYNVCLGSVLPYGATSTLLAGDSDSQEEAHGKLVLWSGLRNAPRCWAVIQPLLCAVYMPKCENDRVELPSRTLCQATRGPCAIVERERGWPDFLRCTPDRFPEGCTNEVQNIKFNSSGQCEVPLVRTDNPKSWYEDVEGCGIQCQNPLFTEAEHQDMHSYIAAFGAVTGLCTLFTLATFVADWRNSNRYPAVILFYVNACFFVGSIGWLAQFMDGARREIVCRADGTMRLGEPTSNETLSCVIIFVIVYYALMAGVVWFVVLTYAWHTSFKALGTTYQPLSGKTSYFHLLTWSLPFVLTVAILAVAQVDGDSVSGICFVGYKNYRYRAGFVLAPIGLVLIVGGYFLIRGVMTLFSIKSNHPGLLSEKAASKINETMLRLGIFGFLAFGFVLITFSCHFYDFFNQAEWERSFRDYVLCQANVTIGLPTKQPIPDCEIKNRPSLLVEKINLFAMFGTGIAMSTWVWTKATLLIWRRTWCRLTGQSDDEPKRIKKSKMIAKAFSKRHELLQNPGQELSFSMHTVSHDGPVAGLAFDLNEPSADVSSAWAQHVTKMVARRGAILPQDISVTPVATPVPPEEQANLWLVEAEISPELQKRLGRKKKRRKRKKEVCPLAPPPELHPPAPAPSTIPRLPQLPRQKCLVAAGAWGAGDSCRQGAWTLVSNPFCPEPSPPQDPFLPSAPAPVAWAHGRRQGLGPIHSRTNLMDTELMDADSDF

Daoy [3] = assay: Antiproliferative activity against human DAOY cells assessed as cell viability at 10 to 30 uM incubated for 24 hrs by MTT assay relative to control; assay type: functional; conditions: dose 10-30 µM
[4] = molecular target: Protein smoothened (Homo sapiens) (UniProt Q99835); assay: Binding affinity to recombinant human Flag-6 x His-tagged Smo expressed in human HEK293T cells assessed as reduction in BODIPY-Cyclopamine binding by measuring fluorescence intensity incubated for 2 to 4 hrs by fluorescence microscopic based competitive binding analysis; assay type: cell-based; conditions: dose 3-30 µM, time 2-4 hrs
Daoy [5] = assay: Antiproliferative activity against human DAOY cells assessed as cell viability at 0.2 uM incubated for 24 hrs by MTT assay relative to control; assay type: functional; conditions: read-out: Activity
[6] = molecular target: Protein smoothened (Homo sapiens) (UniProt Q99835); assay: Binding affinity to recombinant human Flag-6 x His-tagged Smo expressed in human HEK293T cells assessed as reduction in BODIPY-Cyclopamine binding by measuring fluorescence intensity at 3 uM incubated for 2 to 4 hrs by fluorescence microscopic competitive binding analysis relative to control; assay type: cell-based; set-up: scale not given: the % may be the effect or the level left; conditions: time 2-4 hrs
Daoy [7] = assay: Antiproliferative activity against human DAOY cells assessed as reduction in cell viability incubated for 24 hrs by MTT assay; assay type: functional, cell-based
Daoy [8] = assay: Antiproliferative activity against human DAOY cells assessed as cell viability at 30 uM incubated for 24 hrs by MTT assay relative to control; assay type: functional; conditions: read-out: Activity

| IC50 [1] [µM] | Activity [2] [%] | Activity [4] | Compound | Activity (Daoy [3]) [%] | viability at 0.2 µM (Daoy [5]) [%] | Activity [6] [%] | IC50 (Daoy [7]) [µM] | inhibition (Daoy [7]) | viability at 30 µM (Daoy [8]) [%] |
| --- | --- | --- | --- | --- | --- | --- | --- | --- | --- |
| 5.81 | 58.7 | Dose-Dependent Effect | C[C@@H]1CCN=C([C@@H](C)[C@H]2CC[C@H]3[C@@H]4CC=C5C[C@@H](O)CC[C@]5(C)[C@H]4CC[C@]23C)C1=O | 79.45 |  |  |  |  |  |
| 0.95 | 42.8 |  | C[C@H]1CC[C@@H]2N(C1)C[C@H]1[C@@H]3C[C@H]4[C@@H](CC=C5C[C@@H](O)CC[C@@]54C)[C@@H]3C[C@H](O)[C@@H]1[C@]2(C)O | 79.45 |  |  |  |  |  |
| 0.07 |  |  | CS(=O)(=O)c1ccc(C(=O)Nc2ccc(Cl)c(-c3ccccn3)c2)c(Cl)c1 [VISMODEGIB] |  | 91.5 |  |  |  |  |
| 1.11 | 47.1 | Dose-Dependent Effect | C[C@H]1CCC([C@@H](C)[C@H]2CC[C@H]3[C@@H]4CC=C5C[C@@H](O)CC[C@]5(C)[C@H]4CC[C@]23C)=NC1 [VERAZINE] | 79.45 |  |  |  |  |  |
| 14.3 | 69.4 |  | CC[C@H](C)C(=O)O[C@H]1[C@H](O)[C@H]2[C@@H](CN3C[C@@H](C)CC[C@H]3[C@@]2(C)O)[C@@H]2C[C@@]34O[C@]5(O)[C@@H]([C@@H](O)[C@@H](O)[C@H]3[C@@]21O)[C@]4(C)CC[C@@H]5O | 79.45 |  |  |  |  |  |
| 12.3 |  |  | C[C@H]1CC[C@@H]([C@@H](C)[C@]2(C)CCC3C2=CCC2C3CC=C3C[C@@H](O[C@@H]4O[C@H](CO)[C@@H](O)[C@H](O)[C@H]4O[C@@H]4O[C@@H](C)[C@H](O)[C@@H](O)[C@H]4O)CC[C@@]32C)NC1 (stereo not given in full) | 79.45 |  | 53.3 |  |  |  |
| 1.62 | 54.5 | Dose-Dependent Effect | C[C@@H]1CCN=C([C@H](C)[C@H]2CC[C@H]3[C@@H]4CC=C5C[C@@H](O)CC[C@]5(C)[C@H]4CC[C@]23C)C1=O | 79.45 |  |  |  |  |  |
| 3.26 | 53.2 | Dose-Dependent Effect | C[C@H]1CCC([C@H](C)[C@H]2CC[C@H]3[C@@H]4CC=C5C[C@@H](O)CC[C@]5(C)[C@H]4CC[C@]23C)=NC1 | 79.45 |  |  |  |  |  |
| 0.72 | 45.1 |  | C[C@H]1CC[C@@H]2[C@@H](C)[C@H]3[C@H](C[C@H]4[C@@H]5CC=C6C[C@@H](O[C@@H]7O[C@H](CO)[C@@H](O)[C@H](O)[C@H]7O[C@@H]7O[C@@H](C)[C@H](O)[C@@H](O)[C@H]7O)CC[C@]6(C)[C@H]5CC[C@]34C)N2C1 |  |  |  | 5.35 | Dose-Dependent Effect | 13 |

| Compound | IC50 [1] [µM] | Activity [2] [%] | Activity [4] | Activity (Daoy [3]) [%] | viability at 0.2 µM (Daoy [5]) [%] | Activity [6] [%] | IC50 (Daoy [7]) [µM] | inhibition (Daoy [7]) | viability at 30 µM (Daoy [8]) [%] |
| --- | --- | --- | --- | --- | --- | --- | --- | --- | --- |
| CC1=C2C(=O)[C@H]3C(CC=C4C[C@@H](O)CC[C@@]43C)[C@@H]2CC[C@]12O[C@@H]1C[C@H](C)CN[C@H]1[C@H]2C (stereo not given in full) | 2.35 |  |  | 79.45 |  | 22.3 |  |  |  |
